The text below walks through data of ChEMBL document CHEMBL1140120, “Discovery of biphenyl piperazines as novel and long acting muscarinic acetylcholine receptor antagonists” (J Med Chem, 2008).

Converted amounts (≈) assume the structure as drawn. The source made the active and inactive calls. The calls are words filed in the database; no cut-off is given here.

Series [1] deals with T1, Muscarinic acetylcholine receptor M3 (Homo sapiens, UniProt P20309). Put plainly: Antagonist activity at cloned muscarinic M3 receptor expressed in CHO cells assessed as acetylcholine-induced change in cytosolic calcium concentration by FLIPR assay. Format: functional, cell-based. As to conditions: read-out: pA2 (converted).
Target sequence in this assay (P20309 whole entry): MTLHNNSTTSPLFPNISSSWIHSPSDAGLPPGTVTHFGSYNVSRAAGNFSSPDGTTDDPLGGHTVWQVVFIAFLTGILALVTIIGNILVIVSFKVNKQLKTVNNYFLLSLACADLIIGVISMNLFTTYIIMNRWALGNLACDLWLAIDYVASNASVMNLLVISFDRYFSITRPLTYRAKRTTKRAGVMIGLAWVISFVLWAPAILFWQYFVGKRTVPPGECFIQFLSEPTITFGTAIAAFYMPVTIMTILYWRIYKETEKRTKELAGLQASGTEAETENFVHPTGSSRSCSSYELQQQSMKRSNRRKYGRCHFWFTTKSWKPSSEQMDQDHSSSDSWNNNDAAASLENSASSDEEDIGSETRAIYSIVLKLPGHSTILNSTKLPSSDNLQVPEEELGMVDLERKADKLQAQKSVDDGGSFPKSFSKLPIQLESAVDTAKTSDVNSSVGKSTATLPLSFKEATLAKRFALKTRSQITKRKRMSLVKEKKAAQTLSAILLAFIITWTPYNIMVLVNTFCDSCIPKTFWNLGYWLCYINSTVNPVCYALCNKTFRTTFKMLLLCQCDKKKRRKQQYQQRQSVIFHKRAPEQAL
The target in series [2] is T2, Muscarinic acetylcholine receptor M2 (Homo sapiens, UniProt P08172).
T2 sequence (P08172 whole entry): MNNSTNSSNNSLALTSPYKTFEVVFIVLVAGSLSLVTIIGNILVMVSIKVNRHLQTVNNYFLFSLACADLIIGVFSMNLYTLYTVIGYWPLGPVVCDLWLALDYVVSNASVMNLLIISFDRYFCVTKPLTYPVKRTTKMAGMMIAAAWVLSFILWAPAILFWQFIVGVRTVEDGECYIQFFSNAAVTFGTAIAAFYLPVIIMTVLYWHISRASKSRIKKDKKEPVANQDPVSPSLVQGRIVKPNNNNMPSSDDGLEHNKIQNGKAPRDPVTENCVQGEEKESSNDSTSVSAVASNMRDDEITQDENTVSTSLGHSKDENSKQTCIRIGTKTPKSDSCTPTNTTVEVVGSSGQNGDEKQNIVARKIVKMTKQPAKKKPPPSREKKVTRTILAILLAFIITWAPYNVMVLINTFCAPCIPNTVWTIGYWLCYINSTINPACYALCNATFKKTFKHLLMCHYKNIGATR
Put plainly: Antagonist activity at cloned muscarinic M2 receptor-Gqi5 chimeric protein expressed in CHO cells assessed as acetylcholine-induced change in cytosolic calcium concentration by FLIPR assay. As to conditions: read-out: pA2 (converted). Format: functional, cell-based.

Series [3] deals with Muscarinic acetylcholine receptors; M2 & M3 (Homo sapiens) (UniProt P20309+P08172). Put plainly: Selectivity for human cloned muscarinic M3 receptor over human cloned muscarinic M2 receptor.
For series [4], the target named is Muscarinic acetylcholine receptor M1 and M3 (Homo sapiens) (UniProt P20309+P11229). Put plainly: Selectivity for human cloned muscarinic M3 receptor over human cloned muscarinic M1 receptor.
Series [5] concerns the target T3, Muscarinic acetylcholine receptor M1 (Homo sapiens, UniProt P11229).
T3 sequence (P11229 whole entry): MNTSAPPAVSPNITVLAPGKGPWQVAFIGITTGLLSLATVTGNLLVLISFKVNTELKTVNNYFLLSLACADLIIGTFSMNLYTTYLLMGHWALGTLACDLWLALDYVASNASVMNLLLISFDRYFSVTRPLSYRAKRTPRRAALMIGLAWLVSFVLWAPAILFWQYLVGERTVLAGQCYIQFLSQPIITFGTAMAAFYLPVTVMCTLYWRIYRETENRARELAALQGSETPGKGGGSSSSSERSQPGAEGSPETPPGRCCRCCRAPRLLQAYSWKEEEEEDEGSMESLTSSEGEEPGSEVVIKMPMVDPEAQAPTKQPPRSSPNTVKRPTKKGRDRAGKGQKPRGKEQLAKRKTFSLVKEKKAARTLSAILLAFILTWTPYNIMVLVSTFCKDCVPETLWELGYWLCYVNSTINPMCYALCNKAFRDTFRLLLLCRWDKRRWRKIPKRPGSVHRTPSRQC
Put plainly: Antagonist activity at cloned muscarinic M1 receptor expressed in CHO cells assessed as acetylcholine-induced change in cytosolic calcium concentration by FLIPR assay. It is filed as functional, cell-based. The settings on record: read-out: pA2 (converted).

For series [6], the system named is Mus musculus. Put plainly: Inhibition of methacholine-induced bronchoconstriction in intranasally single dosed conscious BALB/c mouse assessed by measuring enhanced pause at 5 ug after 5 hrs by barometric plethysmography relative to control. It is filed as functional.
For series [7], the system named is Mus musculus. Put plainly: Inhibition of methacholine-induced bronchoconstriction in intranasally single dosed conscious BALB/c mouse assessed by measuring enhanced pause at 5 ug after 15 mins by barometric plethysmography relative to control. It is filed as functional.
The test system of series [8] is Mus musculus. Put plainly: Inhibition of methacholine-induced bronchoconstriction in intranasally single dosed conscious BALB/c mouse assessed by measuring enhanced pause at 5 ug after 24 hrs by barometric plethysmography relative to control. Format: functional.
The target in series [9] is Voltage-gated inwardly rectifying potassium channel KCNH2 (Homo sapiens, UniProt Q12809). Put plainly: Inhibition of human ERG.
Series [10] is described as follows: Aqueous solubility of the compound. It is filed as physicochemical. As to conditions: buffer.
Series [11] can be described thus: Inhibition of alpha adrenergic receptor at 10 uM.
A further series addresses Cytochrome P450 2D6 (Homo sapiens, UniProt P10635). Put plainly: Inhibition of CYP2D6. It is filed as ADME.
The target of a further series is Cytochrome P450 2C19 (Homo sapiens, UniProt P33261). Put plainly: Inhibition of CYP2C19. It is filed as ADME.
The target in series [12] is T1, Muscarinic acetylcholine receptor M3. Put plainly: Displacement of [3H]N-methyl Scopolamine from human cloned muscarinic M3 receptor expressed in CHO cells by scintillation proximity assay. Format: cell-based. (In a radioligand displacement assay an active substance lowers the binding of a labelled ligand.)
Target sequence in this assay (P20309 whole entry): as the sequence (P20309 whole entry) above
The target of the next series is T4, Cytochrome P450 1A2 (Homo sapiens, UniProt P05177).
T4 sequence (P05177 whole entry): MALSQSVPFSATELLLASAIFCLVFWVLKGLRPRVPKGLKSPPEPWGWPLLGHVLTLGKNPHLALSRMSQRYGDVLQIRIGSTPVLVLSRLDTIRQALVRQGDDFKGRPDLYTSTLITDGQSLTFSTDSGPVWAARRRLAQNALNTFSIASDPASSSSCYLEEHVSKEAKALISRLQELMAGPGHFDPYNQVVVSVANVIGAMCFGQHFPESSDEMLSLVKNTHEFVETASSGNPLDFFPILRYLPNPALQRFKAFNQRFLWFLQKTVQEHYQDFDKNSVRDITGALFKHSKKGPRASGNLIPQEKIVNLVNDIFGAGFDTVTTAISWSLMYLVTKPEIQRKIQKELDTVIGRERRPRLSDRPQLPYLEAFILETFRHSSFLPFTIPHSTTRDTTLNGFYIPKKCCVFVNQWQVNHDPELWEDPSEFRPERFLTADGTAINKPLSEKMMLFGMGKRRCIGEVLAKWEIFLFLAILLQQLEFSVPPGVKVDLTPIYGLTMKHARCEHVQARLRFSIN
Put plainly: Inhibition of CYP1A2. Format: ADME.

The target of a further series is Cytochrome P450 3A4 (Homo sapiens, UniProt P08684). Put plainly: Inhibition of CYP3A4. Format: ADME.
Series [13] can be described thus: Permeability across artificial phospholipid membrane. It is filed as ADME. The settings on record: not told; read-out: permeability.
Series [14] is described as follows: Inhibition of serotonin receptor at 10 uM.
Another series addresses Cytochrome P450 2C9 (Homo sapiens, UniProt P11712). Put plainly: Inhibition of CYP2C9. It is filed as ADME.
Series [15] relates to Mus musculus. Put plainly: Inhibition of methacholine-induced bronchoconstriction in intranasally single dosed conscious BALB/c mouse assessed by measuring enhanced pause at 5 ug after 48 hrs by barometric plethysmography relative to control. It is filed as functional.
Series [16] is described as follows: Inhibition of opioid receptor at 10 uM.
Series [17] has as its target T1, Muscarinic acetylcholine receptor M3. The settings on record: CHO.
Target sequence in this assay (P20309 whole entry, looked up): as the sequence (P20309 whole entry) above
Description: Antagonist activity at cloned muscarinic M3 receptor expressed in CHO cells assessed as acetylcholine-induced change in cytosolic calcium concentration pretreated for 30 mins by FLIPR assay
The test system of series [18] is Mus musculus. Put plainly: Inhibition of methacholine-induced bronchoconstriction in intranasally single dosed conscious BALB/c mouse assessed by measuring enhanced pause at 5 ug after 72 hrs by barometric plethysmography relative to control. Format: functional.
Series [19] concerns the target T1, Muscarinic acetylcholine receptor M3. Put plainly: Inhibition of human cloned muscarinic M3 receptor expressed in CHO cells by FLIPR assay. Format: cell-based.
Target sequence in this assay (P20309 whole entry): as the sequence (P20309 whole entry) above
The target of series [20] is T2, Muscarinic acetylcholine receptor M2. Put plainly: Inhibition of human cloned muscarinic M2 receptor-Gqi5 chimeric protein expressed in CHO cells by FLIPR assay. It is filed as cell-based.
The target of series [21] is T3, Muscarinic acetylcholine receptor M1. Put plainly: Inhibition of human cloned muscarinic M1 expressed in CHO cells by FLIPR assay. It is filed as cell-based.

Chain of Muscarinic acetylcholine receptors; M2 & M3 (Homo sapiens) (P20309 whole entry, looked up, one chain of several): as the sequence (P20309 whole entry) above
Chain of Muscarinic acetylcholine receptor M1 and M3 (Homo sapiens) (P20309 whole entry, looked up, one chain of several): as the sequence (P20309 whole entry) above
Chain of Cytochrome P450 2C19 (P33261 whole entry): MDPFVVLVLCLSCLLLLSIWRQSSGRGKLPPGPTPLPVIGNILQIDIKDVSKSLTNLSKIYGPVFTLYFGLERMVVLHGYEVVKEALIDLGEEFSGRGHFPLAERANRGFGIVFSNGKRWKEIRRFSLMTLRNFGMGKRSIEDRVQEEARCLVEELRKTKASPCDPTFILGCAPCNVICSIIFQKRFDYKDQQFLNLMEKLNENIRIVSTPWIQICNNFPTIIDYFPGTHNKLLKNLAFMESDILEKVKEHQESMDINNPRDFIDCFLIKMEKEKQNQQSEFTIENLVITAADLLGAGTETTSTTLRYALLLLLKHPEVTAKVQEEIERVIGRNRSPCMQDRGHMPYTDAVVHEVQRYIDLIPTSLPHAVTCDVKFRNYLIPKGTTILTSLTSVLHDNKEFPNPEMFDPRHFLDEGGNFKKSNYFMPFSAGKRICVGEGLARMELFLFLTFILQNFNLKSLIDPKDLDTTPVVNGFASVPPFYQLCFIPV
Chain of Voltage-gated inwardly rectifying potassium channel KCNH2 (Q12809 whole entry): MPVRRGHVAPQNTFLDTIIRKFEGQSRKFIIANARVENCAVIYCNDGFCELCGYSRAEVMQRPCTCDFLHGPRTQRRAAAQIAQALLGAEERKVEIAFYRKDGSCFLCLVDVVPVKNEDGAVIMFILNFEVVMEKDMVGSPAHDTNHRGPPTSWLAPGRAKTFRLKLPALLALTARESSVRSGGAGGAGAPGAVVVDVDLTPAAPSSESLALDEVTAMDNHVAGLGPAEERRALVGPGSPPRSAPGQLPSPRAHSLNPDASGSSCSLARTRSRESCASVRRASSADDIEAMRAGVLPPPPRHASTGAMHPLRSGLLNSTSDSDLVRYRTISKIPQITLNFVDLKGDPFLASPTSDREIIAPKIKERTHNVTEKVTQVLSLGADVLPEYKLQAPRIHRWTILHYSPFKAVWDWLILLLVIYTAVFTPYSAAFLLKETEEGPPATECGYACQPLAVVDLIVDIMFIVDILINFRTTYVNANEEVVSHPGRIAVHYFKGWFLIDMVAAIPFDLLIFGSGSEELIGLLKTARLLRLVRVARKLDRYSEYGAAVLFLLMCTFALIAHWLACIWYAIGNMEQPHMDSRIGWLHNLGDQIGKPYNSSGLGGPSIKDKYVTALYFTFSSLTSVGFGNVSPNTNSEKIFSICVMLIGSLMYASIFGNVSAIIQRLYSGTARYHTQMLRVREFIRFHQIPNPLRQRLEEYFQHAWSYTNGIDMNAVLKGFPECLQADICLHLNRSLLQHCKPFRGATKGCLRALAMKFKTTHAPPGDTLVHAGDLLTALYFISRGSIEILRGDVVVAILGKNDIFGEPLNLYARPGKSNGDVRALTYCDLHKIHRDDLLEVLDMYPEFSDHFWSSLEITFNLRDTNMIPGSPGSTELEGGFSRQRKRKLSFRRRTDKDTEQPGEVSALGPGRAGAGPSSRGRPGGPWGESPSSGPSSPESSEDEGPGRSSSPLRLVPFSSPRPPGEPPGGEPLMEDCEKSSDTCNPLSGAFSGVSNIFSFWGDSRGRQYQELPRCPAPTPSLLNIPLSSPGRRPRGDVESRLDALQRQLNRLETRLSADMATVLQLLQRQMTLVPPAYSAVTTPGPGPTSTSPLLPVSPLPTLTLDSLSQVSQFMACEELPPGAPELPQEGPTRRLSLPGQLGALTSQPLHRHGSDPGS
Chain of Cytochrome P450 3A4 (P08684 whole entry): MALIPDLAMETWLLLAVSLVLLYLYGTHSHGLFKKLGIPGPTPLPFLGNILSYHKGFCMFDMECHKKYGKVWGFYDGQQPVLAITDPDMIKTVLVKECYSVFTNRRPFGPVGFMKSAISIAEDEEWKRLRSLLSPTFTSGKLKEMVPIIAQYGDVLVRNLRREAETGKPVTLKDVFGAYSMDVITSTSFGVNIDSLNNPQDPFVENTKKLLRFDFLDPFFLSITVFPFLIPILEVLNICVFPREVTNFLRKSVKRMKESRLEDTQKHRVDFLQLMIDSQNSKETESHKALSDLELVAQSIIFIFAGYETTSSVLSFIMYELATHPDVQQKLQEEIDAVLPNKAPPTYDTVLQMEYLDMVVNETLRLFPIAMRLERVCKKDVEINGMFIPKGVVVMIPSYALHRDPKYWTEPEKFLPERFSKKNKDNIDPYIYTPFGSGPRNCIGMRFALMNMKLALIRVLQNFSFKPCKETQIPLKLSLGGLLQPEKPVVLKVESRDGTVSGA
Chain of Cytochrome P450 2C9 (P11712 whole entry): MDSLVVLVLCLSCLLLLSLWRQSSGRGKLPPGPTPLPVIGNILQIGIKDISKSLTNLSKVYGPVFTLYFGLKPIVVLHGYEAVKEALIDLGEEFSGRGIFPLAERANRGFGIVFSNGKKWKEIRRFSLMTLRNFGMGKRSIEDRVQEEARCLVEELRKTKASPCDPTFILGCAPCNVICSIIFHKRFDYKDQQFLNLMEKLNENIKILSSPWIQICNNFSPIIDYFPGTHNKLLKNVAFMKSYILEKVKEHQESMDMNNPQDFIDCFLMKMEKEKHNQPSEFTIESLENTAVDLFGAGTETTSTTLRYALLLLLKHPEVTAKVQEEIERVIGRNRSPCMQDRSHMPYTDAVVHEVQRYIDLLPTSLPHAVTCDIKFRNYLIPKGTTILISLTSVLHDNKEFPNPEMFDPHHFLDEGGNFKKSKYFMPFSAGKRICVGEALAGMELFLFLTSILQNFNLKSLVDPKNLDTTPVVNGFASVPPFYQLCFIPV
Chain of Cytochrome P450 2D6 (P10635 whole entry): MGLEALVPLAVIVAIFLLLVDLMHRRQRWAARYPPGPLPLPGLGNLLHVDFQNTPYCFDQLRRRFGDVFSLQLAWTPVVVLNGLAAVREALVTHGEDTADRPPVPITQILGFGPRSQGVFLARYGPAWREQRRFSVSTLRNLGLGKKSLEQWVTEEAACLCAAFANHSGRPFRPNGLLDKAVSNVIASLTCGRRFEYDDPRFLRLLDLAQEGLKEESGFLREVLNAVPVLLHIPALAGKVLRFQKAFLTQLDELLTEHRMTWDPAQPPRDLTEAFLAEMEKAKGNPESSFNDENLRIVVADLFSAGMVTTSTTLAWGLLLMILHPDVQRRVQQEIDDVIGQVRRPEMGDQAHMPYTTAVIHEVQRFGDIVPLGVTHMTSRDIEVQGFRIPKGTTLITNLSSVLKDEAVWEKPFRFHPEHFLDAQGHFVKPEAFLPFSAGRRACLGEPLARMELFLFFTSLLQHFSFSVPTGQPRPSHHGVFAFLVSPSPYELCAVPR

On to `C[C@H]1CN(Cc2cccc(-c3cc(CNC(=O)c4cccc(CN5CCNCC5)c4)ccc3F)c2)CCN1`, for which the Kb in series [1] was 0.158 nM; in series [2] it was 63.1 nM; in series [5], 1 nM. Also, the figures for the Ratio in series [3] and in [4] were 400 and 6, respectively.

Regarding `C[C@H]1CN(Cc2cccc(-c3cc(CNC(=O)c4cccc(CN5CC[N+](C)(C)CC5)c4)ccc3F)c2)CCN1.O=C([O-])C(F)(F)F`, the “inhibition (INH)” value is given as 85% in the series on Mus musculus [6] and 95% with Mus musculus [7]. In addition, the Kb in [2] is 12.6 nM; in [5], 2 nM. Moreover, the Ratio in series [3] came to 80. The result with Mus musculus [8] was inactive.

Consider `C[C@H]1CN(Cc2cccc(-c3cc(CNC(=O)c4cccc(CC5CCNCC5)c4)ccc3F)c2)CCN1`, for which the “inhibition (INH)” value with Mus musculus [6] is on record as 94%; with Mus musculus [7], 96%; in the series with Mus musculus [15], 25%; in the series on Mus musculus [8], 40%; with Mus musculus [18], 25%. For the same compound, the 50% inhibitory concentration (IC50) is 10000 nM in [9]; over 10000 nM at Cytochrome P450 2D6; over 10000 nM against Cytochrome P450 2C19; over 10000 nM on Cytochrome P450 1A2; over 10000 nM at Cytochrome P450 3A4; over 10000 nM against Cytochrome P450 2C9. Further, in series [10], the solubility amounted to 200 µM (≈ 103 µg/mL). Also, the inhibition in series [11], in series [14] and in series [16] was 70% throughout. The Kb was 0.01 nM in series [1], 5.01 nM in series [2] and 2.51 nM in [5]. In addition, affinity in [12] was put at a Ki of 0.0316 nM. In addition, the Ratio turned out to be 500 in series [3] and 20 in series [4]. For the same compound, the Papp in series [13] is under 0.3 ×10⁻⁶ cm/s. In addition, in series [17], the pKb came out at 10.5.

Take `O=C(NCc1cccc(-c2cccc(CN3CCNCC3)c2)c1)c1ccc2c(c1)OCO2`: the IC50 was 31.6 nM in series [19], over 3160 nM in series [20] and 158 nM in series [21]. Moreover, the Ratio in series [3] amounted to 100; in [4] it was 5.

Take `C[C@H]1CN(Cc2cccc(-c3cc(CNC(=O)c4cccc(C#N)c4)ccc3F)c2)CCN1`: the Kb was 0.251 nM in [1], 316 nM in series [2] and 7.94 nM in series [5].

With `CCC(=O)c1cccc(C(=O)NCc2ccc(F)c(-c3cccc(CN4CCN[C@@H](C)C4)c3)c2)c1`, the “inhibition (INH)” value in the series on Mus musculus [6] is reported as 20%. Further, the Kb in [1] is 0.0501 nM; in [2], 25.1 nM; in series [5] it was 1 nM. In addition, the outcome in the series with Mus musculus [7] was Active.

Regarding `CC(=O)c1cccc(C(=O)NCc2ccc(F)c(-c3cccc(CN4CCN[C@@H](C)C4)c3)c2)c1`, the “inhibition (INH)” value in the series on Mus musculus [6] is reported as 45%. Also, the Kb is 0.0501 nM in [1], 100 nM in series [2] and 2.51 nM in series [5]. Moreover, the Ratio turned out to be 2000 in series [3] and 50 in [4]. Besides, in the series on Mus musculus [7], the outcome was Active.

What is called IC50 is the concentration needed to halve the response being measured. A lower IC50 goes with greater potency. The solubility is how much of the substance goes into solution per volume. A lower solubility goes with a poorly soluble substance. What is called inhibition is how much of the control response was suppressed. A lower inhibition goes with a weak effect. A word on the Ki: it is the dissociation constant of the complex between target and ligand, obtained from inhibition or displacement. The pKb is the negative decadic logarithm of the Kb, by convention in mol/L. Lower therefore signals a high Kb.
